According to patent US20080009418A1, “Selective Inhibitors” (Alchemia LTD., priority 2004, published 2008):

Assays:
Human δ-opioid (DOP) = target: T1, Human δ-opioid (DOP) (Homo sapiens, UniProt P41143); experiment: Radioligand binding, human δ-opioid (DOP) membranes, FlashPlate, [3H]-Bremazocine; details: compound at 10 μM, [3H]-Bremazocine
T1 construct: purchased Perkin Elmer Biosignal
Method: (§1) Cloned receptor membrane preparations from Perkin Elmer Biosignal™ were used in radioligand binding assays.
(§2) A1 Human δ-opioid (DOP), A2 Human κ-Opioid (KOP), A3 Human Melanocortin (MC3), A4 Human Melanocortin (MC4), A5 Human melanocortin (MC5), A6 Human melanin-concentrating hormone (MCH1), A7 Human μ-opioid (MOP), A8 Human neurokinin (NK1), A9 Human neuropeptide Y (NPY-Y1), A10 Human opioid (ORL1) A11 Mouse urotensin (mUR2)
(§3) Screening experiments were performed in either a 50 μl filtration or 25 μl FlashPlate assay format using the following protocol:
(§4) 19.5 μl buffer, 0.5 μl of compound diluted in DMSO, 5 μl of radioligand diluted in binding buffer.
(§5) The day prior to performing the experiment 50 μl DMSO was added to each well of the compound plates to yield compounds at a final concentration of 10 mM. Daughter plates were then created by diluting the compounds further in DMSO to a concentration of 0.5 mM. The mother plates were frozen immediately.
(§6) Immobilize membranes into FlashPlate microplates using PerkinElmer BioSignal's proprietary coating procedure. Dilute radioligand to 5× the final concentration in binding buffer. Add 19.5 μl buffer to each well of the FlashPlate. Add 0.5 μl of DMSO (total value, 5 wells), reference ligand (non-specific value, 3 wells) or compound to the corresponding wells in the FlashPlate microplate. Initiate the reaction by adding 5 μl of radioligand to each well. Apply TopSeal-A onto FlashPlate microplates. Incubate at room temperature for 1 hour in the dark. Count for 30 seconds per well on TopCount Microplate Scintillation and Luminescence Counter (PerkinElmer) using a count delay of 60 seconds.
(§7) Percentage inhibition was calculated using the following formula: [formula]

Human κ-Opioid (KOP) = target: T2, Human κ-Opioid (KOP) (Homo sapiens, UniProt P41145); experiment: Radioligand binding, human κ-opioid (KOP) membranes, filtration, [3H]-Diprenorphine; details: compound at 10 μM, [3H]-Diprenorphine
T2 construct: purchased Perkin Elmer Biosignal
Method: as §1, §2, §3
(§8) 44 μl membranes diluted in buffer, 1 μl of compound diluted in DMSO, 5 μl of radioligand diluted in binding buffer.
as §5
(§9) Thaw membranes on ice then dilute membranes in binding buffer at a concentration of 1 Unit per well. Dilute radio-ligand to 10 times the final concentration in binding buffer. Add 44 μl of diluted membranes to each well of the deep-well plate. Add 1 μl of DMSO (total value, 5 wells), reference ligand (non-specific value, 3 wells) or compound to the corresponding wells in the deep-well plate. Initiate the reaction by adding 5 μl of radioligand to each well and vortex gently. Incubate at room temperature for 1 hour. During incubation, pre-incubate the Multiscreen Harvest plates in 0.3% PEI. Filter over pre-soaked Multiscreen Harvest plates using a Tomtec Harvester. Wash 9 times with 500 μl of cold 50 mM Tris-HCl pH 7.4 at 4° C. and air-dry for 30 minutes at room temperature under a fume hood. Apply a bottom seal to the Multiscreen Harvest plates. Add 25 μl of MicroScint-0 to each well. Apply TopSeal-A to the plate. Count for 30 seconds per well on TopCount Microplate Scintillation and Luminescence Counter (PerkinElmer) using a count delay of 60 seconds.
as §7

Human Melanocortin (MC3) = target: T3, Human Melanocortin (MC3) (Homo sapiens, UniProt P41968); experiment: Radioligand binding, human melanocortin MC3 membranes, FlashPlate, [125I]-NDP-αMSH; details: compound at 10 μM, [125I]-NDP-αMSH
T3 construct: purchased Perkin Elmer Biosignal
Method: as §1, §2, §3, §4, §5, §6, §7

Human Melanocortin (MC4) = target: T4, Human Melanocortin (MC4) (Homo sapiens, UniProt P32245); experiment: Radioligand binding, human melanocortin MC4 membranes, FlashPlate, [125I]-NDP-αMSH; details: compound at 10 μM, [125I]-NDP-αMSH
T4 construct: purchased Perkin Elmer Biosignal
Method: as §1, §2, §3, §4, §5, §6, §7

Human melanocortin (MC5) = target: T5, Human melanocortin (MC5) (Homo sapiens, UniProt P33032); experiment: Radioligand binding, human melanocortin MC5 membranes, FlashPlate, [125I]-NDP-αMSH; details: compound at 10 μM, [125I]-NDP-αMSH
T5 construct: purchased Perkin Elmer Biosignal
Method: as §1, §2, §3, §4, §5, §6, §7

[1] = target: T6, Human melanin-concentrating hormone (MCH1) (Homo sapiens, UniProt Q99705); experiment: Radioligand binding, human melanin-concentrating hormone MCH1 membranes, FlashPlate, [125I]-S36057; details: compound at 10 μM; for A6: inhibition of radioligand binding, human melanin-concentrating hormone (MCH1): [125I]-S36057
T6 construct: purchased Perkin Elmer Biosignal
Method: as §1, §2, §3, §4, §5, §6, §7

Human μ-opioid (MOP) = target: T7, Human μ-opioid (MOP) (Homo sapiens, UniProt P35372); experiment: Radioligand binding, human μ-opioid (MOP) membranes, FlashPlate, [3H]-Naloxone; details: compound at 10 μM, [3H]-Naloxone
T7 construct: purchased Perkin Elmer Biosignal
Method: as §1, §2, §3, §4, §5, §6, §7

Human neurokinin (NK1) = target: T8, Human neurokinin (NK1) (Homo sapiens, UniProt P25103); experiment: Radioligand binding, human neurokinin NK1 membranes, filtration, [125I]-Substance P; details: compound at 10 μM, [125I]-Substance P
T8 construct: purchased Perkin Elmer Biosignal
Method: as §1, §2, §3, §8, §5, §9, §7

[2] = target: T9, Human neuropeptide Y (NPY-Y1) (Homo sapiens, UniProt P25929); experiment: Radioligand binding, human neuropeptide Y NPY-Y1 membranes, FlashPlate, [125I]-PYY; details: compound at 10 μM, [125I]-PYY
T9 construct: purchased Perkin Elmer Biosignal
T9 sequence (P25929 1-384): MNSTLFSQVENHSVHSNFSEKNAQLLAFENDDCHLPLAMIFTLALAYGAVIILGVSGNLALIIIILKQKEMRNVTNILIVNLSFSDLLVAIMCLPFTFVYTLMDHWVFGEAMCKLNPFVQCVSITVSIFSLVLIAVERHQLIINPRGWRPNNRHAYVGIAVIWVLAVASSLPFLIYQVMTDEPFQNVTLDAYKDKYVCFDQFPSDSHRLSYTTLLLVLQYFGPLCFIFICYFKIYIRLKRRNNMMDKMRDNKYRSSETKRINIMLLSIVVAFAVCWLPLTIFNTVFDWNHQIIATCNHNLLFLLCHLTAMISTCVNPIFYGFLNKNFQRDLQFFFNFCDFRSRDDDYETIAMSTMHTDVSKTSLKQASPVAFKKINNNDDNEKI
Method: as §1, §2, §3, §4, §5, §6, §7

Human opioid (ORL1) = target: T10, Human opioid (ORL1) (Homo sapiens, UniProt P41146); experiment: Radioligand binding, human opioid ORL1 membranes, FlashPlate, [125I]-Nociceptin; details: compound at 10 μM, [125I]-Nociceptin
T10 construct: purchased Perkin Elmer Biosignal
Method: as §1, §2, §3, §4, §5, §6, §7

Mouse urotensin (mUR2) = target: T11, Mouse urotensin (mUR2) (Mus musculus, UniProt Q8VIH9); experiment: Radioligand binding, mouse urotensin mUR2 membranes, FlashPlate, [125I]-Urotensin II; details: compound at 10 μM, [125I]-Urotensin II
T11 construct: purchased Perkin Elmer Biosignal
T11 sequence (Q8VIH9 1-385): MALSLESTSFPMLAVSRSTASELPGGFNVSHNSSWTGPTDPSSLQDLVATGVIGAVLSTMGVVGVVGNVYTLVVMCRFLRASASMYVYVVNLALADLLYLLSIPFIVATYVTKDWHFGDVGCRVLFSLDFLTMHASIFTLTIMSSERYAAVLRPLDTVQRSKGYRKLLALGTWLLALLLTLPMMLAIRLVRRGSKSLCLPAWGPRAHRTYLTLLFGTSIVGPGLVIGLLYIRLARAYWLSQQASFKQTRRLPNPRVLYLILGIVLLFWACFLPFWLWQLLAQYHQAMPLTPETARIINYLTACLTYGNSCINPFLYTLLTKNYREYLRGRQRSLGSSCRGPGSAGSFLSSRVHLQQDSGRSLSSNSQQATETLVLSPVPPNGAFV
Method: as §1, §2, §3, §4, §5, §6, §7

T7 sequence (P35372 whole entry): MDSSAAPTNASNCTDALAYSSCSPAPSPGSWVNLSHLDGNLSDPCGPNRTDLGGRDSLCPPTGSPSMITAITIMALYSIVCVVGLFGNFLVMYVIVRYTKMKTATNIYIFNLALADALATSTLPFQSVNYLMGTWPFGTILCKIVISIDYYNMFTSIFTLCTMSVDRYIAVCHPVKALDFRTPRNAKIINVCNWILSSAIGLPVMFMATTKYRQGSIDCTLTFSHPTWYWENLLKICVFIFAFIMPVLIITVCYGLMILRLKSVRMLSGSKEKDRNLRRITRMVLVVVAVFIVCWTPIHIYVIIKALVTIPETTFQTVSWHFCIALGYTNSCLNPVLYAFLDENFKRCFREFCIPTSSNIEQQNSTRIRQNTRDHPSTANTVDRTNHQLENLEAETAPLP
T6 sequence (Q99705 whole entry): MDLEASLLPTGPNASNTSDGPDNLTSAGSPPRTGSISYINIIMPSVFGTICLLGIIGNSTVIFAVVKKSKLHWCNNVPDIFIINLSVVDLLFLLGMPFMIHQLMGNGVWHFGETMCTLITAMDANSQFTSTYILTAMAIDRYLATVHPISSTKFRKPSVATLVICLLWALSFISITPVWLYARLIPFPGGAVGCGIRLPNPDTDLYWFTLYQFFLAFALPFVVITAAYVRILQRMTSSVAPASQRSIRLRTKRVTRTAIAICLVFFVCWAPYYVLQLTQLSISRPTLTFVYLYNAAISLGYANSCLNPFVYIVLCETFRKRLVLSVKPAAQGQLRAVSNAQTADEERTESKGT
T5 sequence (P33032 whole entry): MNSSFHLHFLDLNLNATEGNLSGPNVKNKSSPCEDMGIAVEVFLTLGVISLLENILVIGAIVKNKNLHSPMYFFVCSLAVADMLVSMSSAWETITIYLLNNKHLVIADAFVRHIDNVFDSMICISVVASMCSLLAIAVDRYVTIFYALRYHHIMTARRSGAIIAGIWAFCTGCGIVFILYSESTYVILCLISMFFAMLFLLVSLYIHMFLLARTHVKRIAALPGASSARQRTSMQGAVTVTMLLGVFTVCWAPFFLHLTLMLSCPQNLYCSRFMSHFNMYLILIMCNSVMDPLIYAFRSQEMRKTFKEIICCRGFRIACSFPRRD
T10 sequence (P41146 whole entry): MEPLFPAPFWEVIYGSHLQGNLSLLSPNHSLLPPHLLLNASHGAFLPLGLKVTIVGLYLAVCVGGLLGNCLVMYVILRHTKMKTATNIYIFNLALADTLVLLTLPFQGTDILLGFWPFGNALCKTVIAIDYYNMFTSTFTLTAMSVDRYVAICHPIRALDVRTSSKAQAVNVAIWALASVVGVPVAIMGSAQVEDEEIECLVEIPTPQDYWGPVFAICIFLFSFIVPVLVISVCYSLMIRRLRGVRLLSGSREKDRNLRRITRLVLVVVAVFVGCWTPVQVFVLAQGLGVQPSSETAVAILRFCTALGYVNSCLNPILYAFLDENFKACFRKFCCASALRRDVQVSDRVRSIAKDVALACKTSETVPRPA
T1 sequence (P41143 whole entry): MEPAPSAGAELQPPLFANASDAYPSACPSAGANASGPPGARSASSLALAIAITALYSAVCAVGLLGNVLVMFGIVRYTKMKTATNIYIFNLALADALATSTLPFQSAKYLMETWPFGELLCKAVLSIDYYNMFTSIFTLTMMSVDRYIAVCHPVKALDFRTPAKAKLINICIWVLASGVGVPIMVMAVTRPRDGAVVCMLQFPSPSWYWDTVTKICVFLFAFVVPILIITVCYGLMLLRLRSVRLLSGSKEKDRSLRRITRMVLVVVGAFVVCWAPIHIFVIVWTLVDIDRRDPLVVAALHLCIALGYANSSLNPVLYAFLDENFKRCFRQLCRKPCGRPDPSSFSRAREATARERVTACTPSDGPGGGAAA
T8 sequence (P25103 whole entry): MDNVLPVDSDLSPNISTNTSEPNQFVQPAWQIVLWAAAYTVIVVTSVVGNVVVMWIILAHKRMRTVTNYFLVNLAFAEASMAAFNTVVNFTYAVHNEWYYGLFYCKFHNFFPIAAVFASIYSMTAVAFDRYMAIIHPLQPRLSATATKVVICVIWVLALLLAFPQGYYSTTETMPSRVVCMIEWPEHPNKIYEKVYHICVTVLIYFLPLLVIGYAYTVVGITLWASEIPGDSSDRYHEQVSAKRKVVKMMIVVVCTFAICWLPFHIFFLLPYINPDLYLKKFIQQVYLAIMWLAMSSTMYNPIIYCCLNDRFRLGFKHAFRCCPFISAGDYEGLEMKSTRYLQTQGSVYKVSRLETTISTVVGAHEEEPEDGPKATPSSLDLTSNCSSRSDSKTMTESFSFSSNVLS
T2 sequence (P41145 whole entry): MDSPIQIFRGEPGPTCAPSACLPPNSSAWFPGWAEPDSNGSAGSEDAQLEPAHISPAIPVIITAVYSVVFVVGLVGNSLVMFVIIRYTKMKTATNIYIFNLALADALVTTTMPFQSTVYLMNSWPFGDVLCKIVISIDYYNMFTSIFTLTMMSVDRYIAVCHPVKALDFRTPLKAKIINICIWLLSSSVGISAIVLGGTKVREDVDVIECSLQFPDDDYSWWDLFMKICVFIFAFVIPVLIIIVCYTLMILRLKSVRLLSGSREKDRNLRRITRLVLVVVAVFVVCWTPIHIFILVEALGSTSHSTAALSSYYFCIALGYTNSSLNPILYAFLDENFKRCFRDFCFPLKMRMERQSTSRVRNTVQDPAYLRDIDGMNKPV
T3 sequence (P41968 whole entry): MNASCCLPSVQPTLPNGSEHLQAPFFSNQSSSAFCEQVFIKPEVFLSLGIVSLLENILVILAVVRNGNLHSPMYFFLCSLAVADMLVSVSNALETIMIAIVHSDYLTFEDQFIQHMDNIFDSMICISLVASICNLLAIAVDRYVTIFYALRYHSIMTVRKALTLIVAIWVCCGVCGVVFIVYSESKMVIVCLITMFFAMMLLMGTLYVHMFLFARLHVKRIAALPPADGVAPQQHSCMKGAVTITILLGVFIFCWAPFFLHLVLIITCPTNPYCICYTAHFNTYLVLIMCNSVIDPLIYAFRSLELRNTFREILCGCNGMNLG
T4 sequence (P32245 whole entry): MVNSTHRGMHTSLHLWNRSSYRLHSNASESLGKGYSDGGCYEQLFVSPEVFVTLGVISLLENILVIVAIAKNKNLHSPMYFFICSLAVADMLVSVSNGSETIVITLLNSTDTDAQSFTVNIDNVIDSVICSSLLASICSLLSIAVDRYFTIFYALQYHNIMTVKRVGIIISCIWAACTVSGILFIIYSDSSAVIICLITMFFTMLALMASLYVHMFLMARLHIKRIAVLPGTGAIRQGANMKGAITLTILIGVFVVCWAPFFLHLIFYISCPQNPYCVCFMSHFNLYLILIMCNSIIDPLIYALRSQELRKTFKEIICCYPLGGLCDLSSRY

| Structure (SMILES) | A1: inhibition of radioligand binding, human δ-opioid (DOP) (Human δ-opioid (DOP)) | A2: inhibition of radioligand binding, human κ-opioid (KOP) (Human κ-Opioid (KOP)) | A3: inhibition of radioligand binding, human melanocortin (MC3) (Human Melanocortin (MC3)) | A4: inhibition of radioligand binding, human melanocortin (MC4) (Human Melanocortin (MC4)) | A5: inhibition of radioligand binding, human melanocortin (MC5) (Human melanocortin (MC5)) | A6: inhibition of radioligand binding, human melanin-concentrating hormone (MCH1) [1] | A7: inhibition of radioligand binding, human μ-opioid (MOP) (Human μ-opioid (MOP)) | A8: inhibition of radioligand binding, human neurokinin (NK1) (Human neurokinin (NK1)) | A9: inhibition of radioligand binding, human neuropeptide Y (NPY-Y1) [2] | A10: inhibition of radioligand binding, human opioid (ORL1) (Human opioid (ORL1)) | A11: inhibition of radioligand binding, mouse urotensin (mUR2) (Mouse urotensin (mUR2)) | other results |
| --- | --- | --- | --- | --- | --- | --- | --- | --- | --- | --- | --- | --- |
| CSC1OC(COCc2ccc3ccccc3c2)C(O)C(OCc2ccccc2)C1NC(=O)CCN (stereo not drawn) [compound 261] |  |  |  |  |  |  |  |  |  |  |  | A1: inhibition of radioligand binding (Human δ-opioid (DOP); FlashPlate): − (“−” indicates less than 50% inhibition at 10 μM); A2: inhibition of radioligand binding (Human κ-Opioid (KOP); filtration): − (“−” indicates less than 50% inhibition at 10 μM); A3: inhibition of radioligand binding (Human Melanocortin (MC3); FlashPlate): − (“−” indicates less than 50% inhibition at 10 μM); A4: inhibition of radioligand binding (Human Melanocortin (MC4); FlashPlate): − (“−” indicates less than 50% inhibition at 10 μM); A5: inhibition of radioligand binding (Human melanocortin (MC5); FlashPlate): + (“+” indicates greater than 50% inhibition at 10 μM); A6: inhibition of radioligand binding ([1]; [125I]-S36057, FlashPlate): − (“−” indicates less than 50% inhibition at 10 μM); A7: inhibition of radioligand binding (Human μ-opioid (MOP); FlashPlate): − (“−” indicates less than 50% inhibition at 10 μM); A8: inhibition of radioligand binding (Human neurokinin (NK1); filtration): − (“−” indicates less than 50% inhibition at 10 μM); A9: inhibition of radioligand binding ([2]; FlashPlate): − (“−” indicates less than 50% inhibition at 10 μM); A10: inhibition of radioligand binding (Human opioid (ORL1); FlashPlate): − (“−” indicates less than 50% inhibition at 10 μM); A11: inhibition of radioligand binding (Mouse urotensin (mUR2); FlashPlate): − (“−” indicates less than 50% inhibition at 10 μM) |
| CSC1OC(COCc2ccc3ccccc3c2)C(O)C(OCc2ccc3ccccc3c2)C1NC(=O)CCN (stereo not drawn) [compound 318] | − (“−” indicates less than 50% inhibition at 10 μM) | − (“−” indicates less than 50% inhibition at 10 μM) | − (“−” indicates less than 50% inhibition at 10 μM) | − (“−” indicates less than 50% inhibition at 10 μM) | + (“+” indicates greater than 50% inhibition at 10 μM) | − (“−” indicates less than 50% inhibition at 10 μM) | − (“−” indicates less than 50% inhibition at 10 μM) | + (“+” indicates greater than 50% inhibition at 10 μM) | − (“−” indicates less than 50% inhibition at 10 μM) | − (“−” indicates less than 50% inhibition at 10 μM) | − (“−” indicates less than 50% inhibition at 10 μM) |  |
| Cc1ccc(CO[C@H]2[C@H](O)[C@@H](CO)OC(NC(=O)CCN)[C@@H]2NC(=O)c2ccccc2)cc1 (stereo partly drawn) [compound 357] | − (“−” indicates less than 50% inhibition at 10 μM) | − (“−” indicates less than 50% inhibition at 10 μM) | − (“−” indicates less than 50% inhibition at 10 μM) | − (“−” indicates less than 50% inhibition at 10 μM) | − (“−” indicates less than 50% inhibition at 10 μM) | + (“+” indicates greater than 50% inhibition at 10 μM) | − (“−” indicates less than 50% inhibition at 10 μM) | − (“−” indicates less than 50% inhibition at 10 μM) | − (“−” indicates less than 50% inhibition at 10 μM) | − (“−” indicates less than 50% inhibition at 10 μM) | − (“−” indicates less than 50% inhibition at 10 μM) |  |
